Paper PMC10935503 (Acta Pharmaceutica Sinica. B, 2023)
Like-named read-outs stand apart in the source and are kept apart here.

Tests used:
MT-4 cells = test: Cytotoxicity in mock-infected MT-4 cells, MTT method; assay type: cell-based; conditions: MTT method
HIV-1 WT strain (IIIB) = test: Anti-HIV-1 activity in MT-4 cells, MTT method, WT strain IIIB; assay type: cell-based
HIV-1 Y181C = test: microbe, parasite or virus in culture; assay type: cell-based; conditions: for RF Y181C: resistance fold, EC50 (mutant strain)/EC50 (WT strain); for SI Y181C: selectivity index, ratio of CC50/EC50
HIV-1 K103N = test: microbe, parasite or virus in culture; assay type: cell-based; conditions: for RF K103N: resistance fold, EC50 (mutant strain)/EC50 (WT strain); for SI K103N: selectivity index, ratio of CC50/EC50
[1] = tested on: HIV-1 K103N + Y181C (RES056); test: microbe, parasite or virus in culture; assay type: cell-based; conditions: for RF RES056: resistance fold, EC50 (mutant strain)/EC50 (WT strain); for SI RES056: selectivity index, ratio of CC50/EC50
HIV-1 F227L + V106A = test: microbe, parasite or virus in culture; assay type: cell-based; conditions: for RF F227L + V106A: resistance fold, EC50 (mutant strain)/EC50 (WT strain); for SI F227L + V106A: selectivity index, ratio of CC50/EC50
HIV-1 Y188L = test: microbe, parasite or virus in culture; assay type: cell-based; conditions: for RF Y188L: resistance fold, EC50 (mutant strain)/EC50 (WT strain); for SI Y188L: selectivity index, ratio of CC50/EC50
HIV-1 RT = HIV-1 RT (Human immunodeficiency virus type 1 group M subtype B, UniProt P03366); test: HIV-1 RT inhibition assay; assay type: biochemical
[2] = Cytotoxicity in mock-infected MT-4 cells, MTT method; assay type: cell-based; conditions: human
HIV-1 E138K = test: microbe, parasite or virus in culture; assay type: cell-based; conditions: for RF E138K: resistance fold, EC50 (mutant strain)/EC50 (WT strain); for SI E138K: selectivity index, ratio of CC50/EC50
HIV-1 L100I = test: microbe, parasite or virus in culture; assay type: cell-based; conditions: for EC50: Human immunodeficiency virus 1, MT4, read-out: EC50 L100I; for RF L100I: resistance fold, EC50 (mutant strain)/EC50 (WT strain); for SI L100I: selectivity index, ratio of CC50/EC50
[3] = In vivo pharmacokinetics in SD rats; design: species or system Sprague–Dawley (SD) rats
[4] = cited from earlier work
[5] = tested on: CYP1A2, CYP2C9, CYP2C19, CYP2D6 (range over isoforms); test: Cytochrome P450 inhibition assay, summary over isoforms; assay type: in vitro ADME; conditions: human, human liver microsomes
[6] = read-out: EC50 IIIB, MT-4 cells, MTT method, HIV-1 IIIB (WT)
[7] = Human immunodeficiency virus 1, MT4, read-out: EC50 Y181C
[8] = Human immunodeficiency virus 1, MT4, read-out: EC50 K103N
[9] = Human immunodeficiency virus 1, MT4, read-out: EC50 RES056
[10] = Human immunodeficiency virus 1, MT4, read-out: EC50 F227L + V106A
[11] = Human immunodeficiency virus 1, MT4, read-out: EC50 Y188L
[12] = Human immunodeficiency virus 1, IIIB, MT4, read-out: EC50 IIIB
[13] = Human immunodeficiency virus 1, MT4, read-out: EC50 E138K
[14] = Sprague-Dawley, rat, plasma, iv, 2 mg/kg
[15] = Sprague-Dawley, rat, plasma, po, 20 mg/kg

Compound	EC50 (HIV-1 Y181C; [7]) [nM]	RF Y181C (HIV-1 Y181C)	SI Y181C (HIV-1 Y181C)	EC50 (HIV-1 K103N; [8]) [nM]	RF K103N (HIV-1 K103N)	SI K103N (HIV-1 K103N)	EC50 [1, 9] [nM]	RF RES056 [1]	SI RES056 [1]	EC50 (HIV-1 F227L + V106A; [10]) [nM]	RF F227L + V106A (HIV-1 F227L + V106A)	SI F227L + V106A (HIV-1 F227L + V106A)	EC50 (HIV-1 Y188L; [11]) [nM]	RF Y188L (HIV-1 Y188L)	SI Y188L (HIV-1 Y188L)	CC50 at 5 days [2] [nM]	EC50 (HIV-1 WT strain (IIIB); [12]) [nM]	RF E138K (HIV-1 E138K)	EC50 (HIV-1 L100I) [nM]	RF L100I (HIV-1 L100I)	further results
4-((1-(4-(4-Cyano-2,6-dimethylphenoxy)-7,8-dihydro-6H-thiopyrano[3,2-d]pyrimidin-2-yl)piperidin-4-yl)amino)benzenesulfonamide [19b]																					CC50 (MT-4 cells): 3070 ± 300 nM; EC50 IIIB (HIV-1 WT strain (IIIB); MT-4 cells, MTT method, HIV-1 IIIB (WT)): lost potency; EC50 (HIV-1 WT strain (IIIB); [6]): > 16100 nM
Cc1cc(/C=C/C#N)cc(C)c1Oc1nc(Nc2ccc(C#N)cc2)nc2c1SCCC2 [15b, (E)-4-((4-(4-(2-Cyanovinyl)-2,6-dimethylphenoxy)-7,8-dihydro-6H-thiopyrano[3,2-d]pyrimidin-2-yl)amino)benzonitrile]	11.1 ± 3.39	3.5	441	6.42 ± 0.4	2.0	762	23.5 ± 14.7	7.4	208	27.9 ± 9.17	8.8	175	23.3 ± 0.48	7.3	210	4890 ± 620	3.18 ± 1.21	6.8	7.26 ± 0.51	2.3	IC50 (HIV-1 RT): 101 ± 12 nM; EC50 (HIV-1 E138K; [13]): 21.7 ± 7.55 nM; SI E138K (HIV-1 E138K): 225; Times greater activity than ETR, L100I (HIV-1 L100I; ratio of EC50 values vs ETR): 1.3 times; SI L100I (HIV-1 L100I): 674
Cc1cc(C#N)cc(C)c1Oc1nc(Nc2ccc(C#N)cc2)nc(N)c1Br [ETR, etravirine, reference compound]	14.1 ± 5.72	5.0		3.38 ± 0.69	1.2		35.2 ± 19.7	12.5		16.3 ± 6.24	5.8		15.4 ± 6.07	5.5		2200 ± 15	2.81 ± 0.47		9.13 ± 6.1	3.2	solubility (physchem; pH 7, aqueous buffer): < 1 µg/mL; solubility (physchem; pH 7.4, aqueous buffer): < 1 µg/mL; V (iv) ([3]; SD rats, iv 2 mg/kg, mean ± SD, n = 3): 8.85 ± 1.17 L/kg; AUC(0-inf) [3, 14]: 587 ± 48 ng·h/mL; AUC(0-t) [3, 14]: 576 ± 45 ng·h/mL; MRT inf [3, 14]: 1.1 ± 0.34 h; MRT last [3, 14]: 0.93 ± 0.23 h; clearance [3, 14]: 57 mL/min/kg; half-life [3, 14]: 1.8 ± 0.24 h; bioavailability ([3]; Sprague-Dawley, rat, plasma, oral, 20 mg/kg): 7.17%; AUC(0-inf) [3, 15]: 421 ± 153 ng·h/mL; AUC(0-t) [3, 15]: 395 ± 139 ng·h/mL; Cmax [3, 15]: 110 ± 34.1 ng/mL; MRT inf [3, 15]: 3.03 ± 0.14 h; MRT last [3, 15]: 2.55 ± 0.04 h; Tmax [3, 15]: 1 h; half-life [3, 15]: 1.82 ± 0.07 h; Water solubility (Sol.) [4]: < 1 µg/mL; IC50 at 10 min [5]: 277 to 12000 nM
Cc1ccnc2c1NC(=O)c1cccnc1N2C1CC1 [NVP, reference compound]		32.0			30.0			18.8			30.0			37.4				1.3			EC50 (HIV-1 Y181C; read-out: EC50 Y181C, MT-4 cells, MTT method): 3780 ± 2580 nM; EC50 (HIV-1 K103N; read-out: EC50 K103N, MT-4 cells, MTT method): 3550 ± 2410 nM; EC50 ([1]; read-out: EC50 RES056, MT-4 cells, MTT method, RES056 (K103N + Y181C)): 2220 ± 736 nM; EC50 (HIV-1 F227L + V106A; read-out: EC50 F227L + V106A, MT-4 cells, MTT method): 3540 ± 2750 nM; EC50 (HIV-1 Y188L; read-out: EC50 Y188L, MT-4 cells, MTT method): 4420 ± 2470 nM; CC50 (MT-4 cells): > 15000 nM; EC50 (HIV-1 WT strain (IIIB); [6]): 118 ± 66.9 nM; EC50 (HIV-1 E138K; read-out: EC50 E138K, MT-4 cells, MTT method): 158 ± 112 nM
Cc1cc(/C=C/C#N)cc(C)c1Nc1ccnc(Nc2ccc(C#N)cc2)n1 [RPV, rilpivirine, reference compound]					1.3						82			80			1 ± 0.27	5.8		1.5	IC50 (HIV-1 RT): 118 ± 27 nM; Water solubility (Sol.) [4]: < 1 µg/mL; IC50 at 10 min [5]: 335 to 9110 nM
Cc1cc(C#N)cc(C)c1Oc1nc(Nc2ccc(C#N)cc2)nc2c1SCCC2 [compound 15a, 4-((2-((4-Cyanophenyl)amino)-7,8-dihydro-6H-thiopyrano[3,2-d]pyrimidin-4-yl)oxy)-3,5-dimethylbenzonitrile]	42.3 ± 4.45	12.5	107	6.41 ± 0.99	1.9	707	85.3 ± 54.3	25.2	53	40.9	12.1	111	20.7 ± 1.88	6.1	219	4530 ± 720	3.38 ± 3.17	5.1	16.7 ± 4.51	4.9	EC50 (HIV-1 E138K; [13]): 17.4 ± 2.24 nM; SI E138K (HIV-1 E138K): 260; SI L100I (HIV-1 L100I): 271
Cc1cc(C#N)cc(C)c1Oc1nc(Nc2ccc(C#N)cc2)nc2c1S(=O)(=O)CCC2 [compound 16b, 4-((2-((4-Cyanophenyl)amino)-5,5-dioxido-7,8-dihydro-6H-thiopyrano[3,2-d]pyrimidin-4-yl)oxy)-3,5-dimethylbenzonitrile]	10.4 ± 1.44	7.2	1798	2.3 ± 0.15	1.6	8130	49.1 ± 14	34.1	381	37.9 ± 21.3	26.3	493	12.3 ± 2.27	8.5	1520	18700 ± 8010	1.44 ± 0.17	7.6	21.8 ± 5.65	15.1	IC50 (HIV-1 RT): 27 ± 11 nM; EC50 (HIV-1 E138K; [13]): 10.9 ± 0.32 nM; SI E138K (HIV-1 E138K): 1716; SI L100I (HIV-1 L100I): 858
